Earlier results, collected in US20150272967A1, “EXTREMELY HIGH LOADING DOSE” (priority 2013, published 2015).

Key:
prostate cancer patients = settings: dose significantly lower than that of the invention
breast cancer patients = settings: modest low doses

Compound	patients showing improvement (significant decrease in the number of positive cancer biopsy samples) (prostate cancer patients)	disease free survival (breast cancer patients; 25.5 without supplementation)	median overall survival (breast cancer patients; 32.8 without supplementation)
C=C1CC[C@H](O)C/C1=C/C=C1\CCC[C@]2(C)[C@@H]([C@H](C)CCCC(C)C)CC[C@@H]12 [Vitamin D3, cholecalciferol]	55%		
Vitamin D		32.6 months	43.8 months
